Data taken from patent US11084842B2 (SUNSHINE LAKE PHARMA CO., LTD., priority 2018, dated 2021).

Each compound was assayed against T1, human SGLT1 (Homo sapiens, UniProt P13866) (assay: Test of inhibitory activity on SGLT1 ([14C]-AMG uptake in CHO cells expressing human SGLT1)). Details: CHO cells expressing human SGLT1, 0.5 μM [14C]-AMG, 37° C., 1 hour.
T1 construct: expressed in transfected cells; host or cells: CHO cells (FIP-in CHO; mock-transfected cells as control)
T1 sequence (P13866 1-664): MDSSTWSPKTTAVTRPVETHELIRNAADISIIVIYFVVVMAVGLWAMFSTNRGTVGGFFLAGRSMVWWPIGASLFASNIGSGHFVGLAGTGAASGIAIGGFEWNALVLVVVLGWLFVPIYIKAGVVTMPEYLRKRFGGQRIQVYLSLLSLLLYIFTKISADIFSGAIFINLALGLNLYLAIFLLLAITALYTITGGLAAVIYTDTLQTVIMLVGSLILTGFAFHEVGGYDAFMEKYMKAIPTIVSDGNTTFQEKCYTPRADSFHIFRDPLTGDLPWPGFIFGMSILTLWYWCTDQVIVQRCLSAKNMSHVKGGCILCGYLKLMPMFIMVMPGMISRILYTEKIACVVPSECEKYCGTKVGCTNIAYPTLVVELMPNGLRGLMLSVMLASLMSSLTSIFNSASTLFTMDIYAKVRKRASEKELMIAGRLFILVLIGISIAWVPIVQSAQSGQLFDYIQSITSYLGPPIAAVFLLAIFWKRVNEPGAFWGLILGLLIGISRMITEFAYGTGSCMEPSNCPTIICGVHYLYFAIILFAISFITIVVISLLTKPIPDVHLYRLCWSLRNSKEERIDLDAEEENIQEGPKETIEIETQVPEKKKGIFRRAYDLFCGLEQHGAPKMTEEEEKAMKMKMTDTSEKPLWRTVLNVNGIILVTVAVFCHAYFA
Format: cell-based
Procedure: The following methods can be used to determine the inhibitory activity of the compound of the invention on SGLT-1.
Mock-transfected FIP-in CHO cells (3×10^4 cells) and expressing human SGLT1 CHO cells were seeded into 96-well plates respectively. The cells were incubated for 12 hours. Each well of the 96-well plate was washed with 150 μL of sodium-free buffer once. To each well was added 50 μL of sodium-containing buffer containing test compounds having different concentrations and 0.5 μM [^14C]-AMG. The incubation mixture was incubated at 37° C. for 1 hour. To each well was added 150 μL of precooled sodium-free buffer to terminate the reaction. The cell pellet was washed with sodiumfree buffer three times and the residual liquid in well was removed. To each well was added 20 μL of precooled 100 mM NaOH. The 96-well plate was vibrated at 900 rpm for 5 minutes. Scintillation fluid (80 μL) was added to each well which was then vibrated at 600 rpm for 5 minutes. The amount of ^14C-AMG was quantitatively detected using liquid scintillation.

Going from `Cc1ccc([C@]23OC[C@](C)(O2)[C@@H](O)[C@H](O)[C@H]3O)cc1Cc1ccc(CCCC(=O)NC(C)(C)C(=O)NCCN(C)C)cc1` [Example 13] to `CC[C@@]12CO[C@@](c3ccc(C)c(Cc4ccc(CCCC(=O)NC(C)(C)C(=O)NCCN(C)C)cc4)c3)(O1)[C@H](O)[C@@H](O)[C@@H]2O` [Example 14, N-(2-dimethylaminoethyl)-2-[4-[4-[[5-[(1S,2S,3S,4R,5S)-1-ethyl-2,3,4-trihydroxy-6,8-dioxabicyclo[3.2.1]octane-5-yl]-2-methyl-phenyl]methyl]phenyl]butanamido]-2-methyl-propionamide], the IC50 falls from 2.9 nM to 0.57 nM (5.1-fold). The second is the more potent here.

`Cc1ccc([C@]23OC[C@](C)(O2)[C@@H](O)[C@H](O)[C@H]3O)cc1Cc1ccc(CCCC(=O)NC2(C(=O)NCCN(C)C)CCCCC2)cc1` [Example 18] and `Cc1ccc([C@]23OC[C@](C)(O2)[C@@H](O)[C@H](O)[C@H]3O)cc1Cc1ccc(CCCC(=O)NC2(C(=O)NCCN(C)C)CCC2)cc1` [Example 17, N-(2-dimethylaminoethyl)-1-[4-[4-[[2-methyl-5-[(1S,2S,3S,4R,5S)-2,3,4-trihydroxy-1-methyl-6,8-dioxabicyclo[3.2.1]octane-5-yl]phenyl]methyl]phenyl]butanamido]cyclobutyl carboxamide] are within 1.5-fold of each other in IC50: 0.43 nM for the first, 0.4 nM for the second.

`Cc1ccc([C@]23OC[C@](C(C)(C)O)(O2)[C@@H](O)[C@H](O)[C@H]3O)cc1Cc1ccc(CCCC(=O)NC2(C(=O)NCCN(C)C)CCC2)cc1` [Example 11] and `Cc1ccc([C@]23OC[C@](C(C)(C)O)(O2)[C@@H](O)[C@H](O)[C@H]3O)cc1Cc1ccc(CCCC(=O)NC2(C(=O)NCCN(C)C)CCCC2)cc1` [Example 8, N-(2-dimethylaminoethyl)-1-[4-[4-[[2-methyl-5-[(1S,2S,3S,4R,5S)-2,3,4-trihydroxy-1-(1-hydroxy-1-methyl-ethyl)-6,8-dioxabicyclo[3.2.1]octane-5-yl]phenyl]methyl]phenyl]butylamide]cyclopentyl formamide] are within 1.5-fold of each other in IC50: 0.23 nM for the first, 0.24 nM for the second.

`Cc1ccc([C@]23OC[C@](C(C)(C)O)(O2)[C@@H](O)[C@H](O)[C@H]3O)cc1Cc1ccc(CCCC(=O)N[C@H](C(=O)NCCN(C)C)C2CC2)cc1` [Example 10, N-[(1S)-1-cyclopropyl-2-(2-dimethylaminoethylamino)-2-oxo-ethyl]-4-[4-[[2-methyl-5-[(1S,2S,3S,4R,5S)-2,3,4-trihydroxy-1-(1-hydroxy-1-methyl-ethyl)-6,8-dioxabicyclo[3.2.1]octane-5-yl]phenyl]methyl]phenyl]butanamide] and `CCC(CC)(NC(=O)CCCc1ccc(Cc2cc([C@]34OC[C@](C(C)(C)O)(O3)[C@@H](O)[C@H](O)[C@H]4O)ccc2C)cc1)C(=O)NCCN(C)C` [Example 12, N-(2-dimethylaminoethyl)-2-ethyl-2-[4-[4-[[2-methyl-5-[(1S,2S,3S,4R,5S)-2,3,4-trihydroxy-1-(1-hydroxy-1-methyl-ethyl)-6,8-dioxabicyclo[3.2.1]octane-5-yl]phenyl]methyl]phenyl]butanamido]butanamide] are within 1.5-fold of each other in IC50: 1.61 nM for the first, 1.51 nM for the second.

`Cc1ccc([C@]23OC[C@](C(C)(C)O)(O2)[C@@H](O)[C@H](O)[C@H]3O)cc1Cc1ccc(CCCC(=O)NC2(C(=O)NCCN(C)C)CCCCC2)cc1` [Example 16, N-(2-dimethylaminoethyl)-1-[4-[4-[[2-methyl-5-[(1S,2S,3S,4R,5S)-2,3,4-trihydroxy-1-(1-hydroxy-1-methyl-ethyl)-6,8-dioxabicyclo[3.2.1]octane-5-yl]phenyl]methyl]phenyl]butylamide]cyclohexyl carboxamide] and `Cc1ccc([C@]23OC[C@](C)(O2)[C@@H](O)[C@H](O)[C@H]3O)cc1Cc1ccc(OCCCC(=O)NC2(C(=O)NCCN(C)C)CCCCC2)cc1` [Example 21, N-(2-dimethylaminoethyl)-1-[4-[4-[[2-methyl-5-[(1S,2S,3S,4R,5S)-2,3,4-trihydroxy-1-methyl-6,8-dioxabicyclo[3.2.1]octane-5-yl]phenyl]methyl]phenoxy]butanamido]cyclohexylcarboxamide] are within 1.5-fold of each other in IC50: 0.47 nM for the first, 0.6 nM for the second.

`Cc1ccc([C@]23OC[C@](C)(O2)[C@@H](O)[C@H](O)[C@H]3O)cc1Cc1ccc(OCCCC(=O)NC2(C(=O)NCCN(C)C)CCC2)cc1` [Example 20, N-(2-dimethylaminoethyl)-1-[4-[4-[[2-methyl-5-[(1S,2S,3S,4R,5S)-2,3,4-trihydroxy-1-methyl-6,8-dioxabicyclo[3.2.1]octane-5-yl]phenyl]methyl]phenoxy]butanamido]cyclobutyl carboxamide] showed an IC50 of 0.55 nM.

Each compound was assayed on blood glucose of SD rats (assay: Oral glucose tolerance test in SD rats (Test Method 2)). Details: dosage 0.1 mg/kg by gavage, glucose 4.0 g/kg, decline rate of AUCGlu 0-60min.
Format: in vivo
Procedure: The following methods were used to evaluate the effects of the compound of the invention on improving oral glucose tolerance and glycosuria excretion.
The weights and the fasting blood glucose levels of male SD rats were measured after an overnight 15-hours fast. The rats were grouped by their weights and fasting plasma glucose levels. […] After 30 minutes, the blood glucose level (i.e., zero point blood glucose) of each group was measured, and then each group was immediately administered glucose (4.0 g/kg) once by gavage. The blood was drawn from the caudal vein of the […] at 15, 30 and 60 minutes after glucose administration and the blood glucose levels were measured continuously on blood-glucose meter. The decline rate of the area under the blood sugar curve within 60 minutes (AUCGlu 0-60min) after sugar loading was calculated.

`Cc1ccc([C@]23OC[C@](C(C)(C)O)(O2)[C@@H](O)[C@H](O)[C@H]3O)cc1Cc1ccc(CCCC(=O)NC2(C(=O)NCCN(C)C)CCCCC2)cc1` [Example 16, N-(2-dimethylaminoethyl)-1-[4-[4-[[2-methyl-5-[(1S,2S,3S,4R,5S)-2,3,4-trihydroxy-1-(1-hydroxy-1-methyl-ethyl)-6,8-dioxabicyclo[3.2.1]octane-5-yl]phenyl]methyl]phenyl]butylamide]cyclohexyl carboxamide] was tested, and the “hypoglycemic rate (%)” value was 30.93%.

Same assay, conditions: dosage 1 mg/kg by gavage, glucose 4.0 g/kg, decline rate of AUCGlu 0-60min

First: Cc1ccc([C@]23OC[C@](C(C)(C)O)(O2)[C@@H](O)[C@H](O)[C@H]3O)cc1Cc1ccc(CCCC(=O)N[C@@H](C)C(=O)NCCN(C)C)cc1 [Example 6, N-[(1S)-2-(2-dimethylaminoethylamino)-1-methyl-2-oxo-ethyl]-4-[4-[[2-methyl-5-[(1S,2S,3S,4R,5S)-2,3,4-trihydroxy-1-(1-hydroxy-1-methyl-ethyl)-6,8-dioxabicyclo[3.2.1]octane-5-yl]phenyl]methyl]phenyl]butanamide]
Second: Cc1ccc([C@]23OC[C@](C(C)(C)O)(O2)[C@@H](O)[C@H](O)[C@H]3O)cc1Cc1ccc(CCCC(=O)NC(C)(C)C(=O)NCCN(C)C)cc1 [Example 2]
The “hypoglycemic rate (%)” value of the first is higher: 33.19% for the first, 31.64% for the second.
